In ChEMBL document CHEMBL1201862, “PubChem BioAssay data set” (2004):
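Five compound concentrations were applied to cells in 96-well plates for 48 hours; endpoints were derived by simple linear interpolation of the resulting dose-response curve. At the GI50, growth is halved.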 Activity calls are given as the source filed them. Rule as the data show it: active = GI50 up to about 1.1 µM and inactive = higher.

Columns and labels:
Assay in all cases: growth of human tumour cells (NCI), 48 h
HOP-92 = system: HOP-92
MOLT-4 = system: MOLT-4
786-0 = system: 786-0
HCT-15 = system: HCT-15
IGROV-1 = system: IGROV-1
HCT-116 = system: HCT-116
SF-295 = system: SF-295
M19-MEL = system: M19-MEL
SNB-19 = system: SNB-19
XF498 = system: XF498
UACC-62 = system: UACC-62
OVCAR-8 = system: OVCAR-8
M14 = system: M14
DMS-273 = system: DMS-273
COLO 205 = system: COLO 205
RPMI-8226 = system: RPMI-8226
DMS-114 = system: DMS-114
UACC-257 = system: UACC-257
UO-31 = system: UO-31
SK-MEL-5 = system: SK-MEL-5
NCI-H23 = system: NCI-H23
Malme-3M = system: Malme-3M
OVCAR-4 = system: OVCAR-4
RXF 631 = system: RXF 631
SNB-78 = system: SNB-78
HL-60 = system: HL-60
U-251 = system: U-251
ACHN = system: ACHN
SN12C = system: SN12C
DLD-1 = system: DLD-1
RXF 393 = system: RXF 393
LXFL 529 = system: LXFL 529
OVCAR-3 = system: OVCAR-3
HCC 2998 = system: HCC 2998
A498 = system: A498
K562 = system: K562
OVCAR-5 = system: OVCAR-5
KM-20L2 = system: KM-20L2
HT-29 = system: HT-29
CCRF-CEM = system: CCRF-CEM
SNB-75 = system: SNB-75
A549 = system: A549
NCI-H460 = system: NCI-H460
EKVX = system: EKVX
SK-MEL-28 = system: SK-MEL-28
SW-620 = system: SW-620
SK-OV-3 = system: SK-OV-3
KM12 = system: KM12
NCI-H226 = system: NCI-H226
HOP-62 = system: HOP-62
SF-268 = system: SF-268
TK-10 = system: TK-10
CAKI-1 = system: CAKI-1
SF-539 = system: SF-539
NCI-H522 = system: NCI-H522
LOX IMVI = system: LOX IMVI
SK-MEL-2 = system: SK-MEL-2

CCc1c(C)[nH]c2c1/C(=N/N=C1\CCCc3[nH]c(C)c(CC)c31)CCC2
GI50 (HOP-92): 14.5 µM (inactive) | GI50 (MOLT-4): 12.8 µM (inactive) | GI50 (786-0): > 100 µM (inactive) | GI50 (HCT-15): 19.4 µM | GI50 (IGROV-1): 20 µM (inactive) | GI50 (HCT-116): 16.9 µM (inactive) | GI50 (SF-295): 20.1 µM (inactive) | GI50 (M19-MEL): 20.6 µM (inactive) | GI50 (SNB-19): 41.4 µM (inactive) | GI50 (XF498): 18.2 µM (inactive) | GI50 (UACC-62): 18.5 µM (inactive) | GI50 (OVCAR-8): 25.8 µM (inactive) | GI50 (M14): 20.7 µM (inactive) | GI50 (DMS-273): 17.4 µM (inactive) | GI50 (COLO 205): 17.9 µM (inactive) | GI50 (RPMI-8226): 7.67 µM (inactive) | GI50 (DMS-114): 14.1 µM (inactive) | GI50 (UACC-257): 17.5 µM (inactive) | GI50 (UO-31): 14.5 µM (inactive) | GI50 (SK-MEL-5): 14.2 µM (inactive) | GI50 (NCI-H23): 18.5 µM (inactive) | GI50 (Malme-3M): > 100 µM (inactive) | GI50 (OVCAR-4): 18.1 µM (inactive) | GI50 (RXF 631): 22.5 µM (inactive) | GI50 (SNB-78): 27.4 µM (inactive) | GI50 (HL-60): 11.9 µM (inactive) | GI50 (U-251): 17 µM (inactive) | GI50 (ACHN): 18.6 µM (inactive) | GI50 (SN12C): 29.2 µM (inactive) | GI50 (DLD-1): > 100 µM (inactive) | GI50 (RXF 393): 22.6 µM (inactive) | GI50 (LXFL 529): 13.8 µM (inactive) | GI50 (OVCAR-3): 14.5 µM (inactive) | GI50 (HCC 2998): > 100 µM (inactive) | GI50 (A498): 25.6 µM (inactive) | GI50 (K562): 16.7 µM (inactive) | GI50 (OVCAR-5): 25.6 µM (inactive) | GI50 (KM-20L2): 27 µM (inactive) | GI50 (HT-29): 27.4 µM (inactive) | GI50 (CCRF-CEM): 19.2 µM (inactive) | GI50 (SNB-75): 20.8 µM (inactive) | GI50 (A549): 27.9 µM (inactive) | GI50 (NCI-H460): 18 µM (inactive) | GI50 (EKVX): 33 µM (inactive) | GI50 (SK-MEL-28): 16.7 µM (inactive) | GI50 (SW-620): 28.5 µM (inactive) | GI50 (SK-OV-3): 30.8 µM (inactive) | GI50 (KM12): 15.7 µM (inactive) | GI50 (NCI-H226): 17.6 µM (inactive) | GI50 (HOP-62): > 100 µM (inactive) | GI50 (SF-268): 19.3 µM (inactive) | GI50 (TK-10): 49.1 µM (inactive) | GI50 (CAKI-1): 29.4 µM (inactive) | GI50 (SF-539): 28.2 µM (inactive) | GI50 (NCI-H522): 14.3 µM (inactive) | GI50 (LOX IMVI): 20.9 µM (inactive) | GI50 (SK-MEL-2): > 100 µM (inactive)

C/C(=C\C(C[C@](C)(O)C(O)CCC#C[Si](C)(C)C)S(=O)(=O)c1ccccc1)CC/C=C/CO[Si](C)(C)C(C)(C)C (some centres undefined)
GI50 (HOP-92): 11.9 µM (inactive) | GI50 (MOLT-4): 6.95 µM (inactive) | GI50 (786-0): 17 µM (inactive) | GI50 (HCT-15): 17.4 µM | GI50 (IGROV-1): 20.8 µM (inactive) | GI50 (HCT-116): 13.4 µM (inactive) | GI50 (SF-295): 16.5 µM (inactive) | GI50 (M19-MEL): 17.2 µM (inactive) | GI50 (SNB-19): 19.8 µM (inactive) | GI50 (XF498): 13.2 µM (inactive) | GI50 (UACC-62): 17.4 µM (inactive) | GI50 (OVCAR-8): 17.2 µM (inactive) | GI50 (M14): 17.9 µM (inactive) | GI50 (DMS-273): 15.7 µM (inactive) | GI50 (RPMI-8226): 10.1 µM (inactive) | GI50 (DMS-114): 15.2 µM (inactive) | GI50 (UACC-257): 17.3 µM (inactive) | GI50 (UO-31): 21.9 µM (inactive) | GI50 (SK-MEL-5): 13.6 µM (inactive) | GI50 (NCI-H23): 18.2 µM (inactive) | GI50 (Malme-3M): 20.7 µM (inactive) | GI50 (OVCAR-4): 13.8 µM (inactive) | GI50 (RXF 631): 9.66 µM (inactive) | GI50 (SNB-78): 16.8 µM (inactive) | GI50 (HL-60): 14.9 µM (inactive) | GI50 (U-251): 13.4 µM (inactive) | GI50 (ACHN): 16 µM (inactive) | GI50 (SN12C): 6.24 µM (inactive) | GI50 (DLD-1): 23.6 µM (inactive) | GI50 (RXF 393): 14.7 µM (inactive) | GI50 (OVCAR-3): 16 µM (inactive) | GI50 (HCC 2998): 21 µM (inactive) | GI50 (A498): 17.5 µM (inactive) | GI50 (K562): 10.7 µM (inactive) | GI50 (OVCAR-5): 13.7 µM (inactive) | GI50 (KM-20L2): 8.61 µM (inactive) | GI50 (HT-29): 3.57 µM (inactive) | GI50 (CCRF-CEM): 10.6 µM (inactive) | GI50 (A549): 15 µM (inactive) | GI50 (NCI-H460): 12.5 µM (inactive) | GI50 (EKVX): 19.7 µM (inactive) | GI50 (SW-620): 17.3 µM (inactive) | GI50 (SK-OV-3): 22.6 µM (inactive) | GI50 (KM12): 16.8 µM (inactive) | GI50 (NCI-H226): 22.1 µM (inactive) | GI50 (HOP-62): 21.4 µM (inactive) | GI50 (TK-10): 22 µM (inactive) | GI50 (CAKI-1): 18.6 µM (inactive) | GI50 (SF-539): 20 µM (inactive) | GI50 (NCI-H522): 16.2 µM (inactive) | GI50 (LOX IMVI): 13.2 µM (inactive) | GI50 (SK-MEL-2): 18 µM (inactive)
